Experimental data taken from paper PMC5650372 (Oncotarget, 2017).

Key:
[1] = test system: NHEJ in HCT116 colorectal cancer cells; assay: 384-well image-based cellular NHEJ assay; assay type: cell-based; conditions: Homo sapiens, HCT-116; HCT116, n=3
Excerpt: (§1) ATM and ATR assay and IC50 determination Cellular NHEJ assay
(§2) HA-ATM and FLAG-ATR (HA-labeled ATM, and The experimental design is illustrated in FLAG-labeled ATR) were each transiently expressed in Supplementary Figure 4. Cal-51 breast cancer cells HEK293 cells (293FT cells, Invitrogen Cat: R700-07) were separately transfected with pEGFP plasmid (6085-using Lipofectamine as transfection reagent. Cells were 1, Clontech, Mountain View, CA) digested with either harvested 6 days post transfection and spun down to EcoRI (to measure NHEJ) or StuI (to measure transfection separate cells from media. Cells were then lysed using a efficiency) using a Amaxa cell line nuclearfector kit V lysis buffer (50 mM Tris buffer, (Tris(hydroxylmethyl)- (CCA-1003, Lonza). Immediately after the transfection, aminomethane, pH 7.5), 100 mM NaCl, 50 mM βGOP, the cells were treated with DMSO or compounds at 10% Glycerol, 0.5% Tween 20, 1 mM EDTA, 25 mM indicated concentrations for 24 hours and GFP-positive sodium fluoride (NaF), 20 nM microcystine, 2 mM cells were counted under a fluorescent microscope. NHEJ phenylmethylsulfonylfluoride (PMSF) and protease activity was calculated by the number of GFP-positive inhibitor cocktail) followed by sonication 3 times and a cells in cells transfected with pEGFP-EcoRI divided by final spin at 20,000 rpm for 30 minutes to generate a clear that in cells transfected with pEGFP-StuI, multiplied by lysate. To perform the immunoprecipitation, enzymes were 100. […]
(§3) or FLAG tags. Beads plus enzymes were then washed 3 developed. Different cell lines were transfected using times with lysis buffer and spun down at 1000 rpm for the procedure described above and subsequently seeded 1 minute. Beads plus enzymes were resuspended in lysis into 384-well plates at optimized density for individual buffer and kept at 4°C until assay. Assays for ATM and cell lines. Cells were then treated with compounds at ATR were conducted in a 33P radioactive assay format. increasing concentrations. GFP+ cells were imaged Assay buffer contained the following reagents: 1 mg/mL and quantitated using the IncuCyte (Essen Bioscience, GST-p53 (glutathione S-transferase–p53 fusion protein) Ann Arbor, MI). NHEJ activity was then normalized substrate (expressed in-house), 20 μg/mL calf thymus to the DMSO control and fitted to the Sigmoidal Dose-DNA activator (Sigma), 100 μg/mL BSA, 200 μM EGTA Response Model (IDBS XLFit Model 205; London, UK)

[2] = test system: NHEJ in PC3 prostate cancer cells; assay: 384-well image-based cellular NHEJ assay; assay type: cell-based; conditions: Homo sapiens; PC3, n=3
Excerpt: as §1, §2, §3

NHEJ in Cal-51 cells = assay: 384-well image-based cellular NHEJ assay; assay type: cell-based; conditions: Homo sapiens; Cal-51, n=3
Excerpt: as §1, §2, §3

[3] = test system: NHEJ in MDA-MB-231 breast cancer cells; assay: 384-well image-based cellular NHEJ assay; assay type: cell-based; conditions: Homo sapiens; MDA-MB-231, n=3
Excerpt: as §1, §2, §3

pChk2 T68 = assay: Western blot of cell-free NHEJ reaction (MCF7 nuclear extract); assay type: biochemical, human; conditions: MCF7 nuclear extract, 0.05, 0.5 or 5 μM
Description: (§4) Nuclear protein (10-20 μg) prepared above was pre-treated with compounds as indicated on ice for 15 minutes. Twenty-five nanograms of EcoRI-digested pBluescript DNA (Stratagene, La Jolla, CA) were then added and the mixture was adjusted to 20 μL final volume in NHEJ buffer (50 mM Hepes-KOH pH 8.0, 40 mM KOAc, 1 mM Mg(OAc)2, 1 mM ATP, 0.1 mg/mL BSA, and 1 mM DTT). After incubation at 25°C for 60 minutes, the reaction was terminated by incubation with 1 μg/mL RNase A for 10 minutes followed by treatment with 2 mg/mL Protease K in 0.5% SDS at 55°C for 30 minutes. The reactions were run onto 0.8% agarose and the gel was stained with Sybr Green (S756, Invitrogen, Carlsbad, CA). For Western blots, an aliquot of the same reaction mixture described above was subjected to SDS-PAGE, transferred to the PVDF membrane, and immunoblotted with indicated antibodies.

pATM S1981 = assay: as above; assay type: biochemical, human; conditions: MCF7 nuclear extract with linear dsDNA
Description: as §4

pDNA-PK S2056 = assay: as above; assay type: biochemical, human
Description: as §4

NHEJ activity = assay: Reconstituted cell-free NHEJ assay (MCF7 nuclear extract); assay type: biochemical, human
Description: MCF7 human breast cancer cells (5-10 x 10^7 each) were incubated in 5 pellet volumes of cold hypotonic buffer (10 mM Hepes-KOH, pH 7.5, 1.5 mM MgCl2, 5 mM KCl, and 0.5 mM DTT) for 20 minutes and were homogenized in a tight-fitting glass dounce homogenizer for 10-20 strokes. The nuclei were then collected by low-speed centrifugation and nuclear proteins were extracted by high-salt buffer (50 mM Tris-HCl, pH 7.5, 1 M KCl, 2 mM EDTA, 1 mM DTT, and protease inhibitors). The extracted nuclear proteins were dialyzed against 1 L of dialysis buffer (20 mM Tris-HCl, pH 8.0, 20% glycerol, 0.1 M KOAc, 0.5 mM EDTA, and 1 mM DTT) for 1 hour and were used for the in vitro NHEJ assay.
as §4

[4] = test system: pAKT S473 in NCI-H441 cells; assay: Western blot quantitation of pAKT S473 (mTORC2 biomarker); assay type: cell-based; conditions: Homo sapiens; NCI-H441, presence of bleomycin, 2 hrs, n=3; read-out: IC50 of pAKT S473 inhibition

CCN1C(=O)CNc2ncc(-c3ccc(-c4nc[nH]n4)nc3C)nc21 [CC-115, 1-ethyl-7-(2-methyl-6-(1H-1,2,4-triazol-3-yl)pyridin-3yl)-3,4-dihydropyrazino[2,3-b]pyrazin-2(1H)-one]
IC50 [1]: 6350 ± 2980 nM | IC50 [2]: 2720 ± 1690 nM | IC50 (NHEJ in Cal-51 cells): 3150 ± 1330 nM | IC50 [3]: 2160 ± 910 nM | inhibition of pChk2 T68, cell-free (pChk2 T68): also inhibited | inhibition of pATM S1981, cell-free (pATM S1981): reduction | inhibition of pDNA-PK S2056, cell-free (pDNA-PK S2056): inhibited | inhibition of NHEJ activity, cell-free (NHEJ activity; 0.5 μM): Partial inhibition | inhibition of NHEJ activity, cell-free (NHEJ activity; 5 μM): complete inhibition | IC50 [4]: 136 ± 62 nM
